Measured values as given in patent US6380387B1, “4-Pyrimidinyl-n-acyl-l phenylalanines” (Hoffmann-La Roche Inc., priority 1999, dated 2002).
pIC50: −log10 of the molar value.

Legend:
VLA-4 (α4β1 integrin) = biological target: T1, VLA-4 (α4β1 integrin) (Homo sapiens, UniProt P05556+P13612); test: Ramos (VLA-4)/VCAM-1 Cell-Based Screening Assay (cell adhesion); conditions: Calcein-AM labeled Ramos cells adhering to immobilized recombinant human VCAM-1
T1 construct: Ramos cells bearing cell-surface VLA-4; endogenous in cells; host or cells: Ramos cells
T1 sequence (P13612 34-1032): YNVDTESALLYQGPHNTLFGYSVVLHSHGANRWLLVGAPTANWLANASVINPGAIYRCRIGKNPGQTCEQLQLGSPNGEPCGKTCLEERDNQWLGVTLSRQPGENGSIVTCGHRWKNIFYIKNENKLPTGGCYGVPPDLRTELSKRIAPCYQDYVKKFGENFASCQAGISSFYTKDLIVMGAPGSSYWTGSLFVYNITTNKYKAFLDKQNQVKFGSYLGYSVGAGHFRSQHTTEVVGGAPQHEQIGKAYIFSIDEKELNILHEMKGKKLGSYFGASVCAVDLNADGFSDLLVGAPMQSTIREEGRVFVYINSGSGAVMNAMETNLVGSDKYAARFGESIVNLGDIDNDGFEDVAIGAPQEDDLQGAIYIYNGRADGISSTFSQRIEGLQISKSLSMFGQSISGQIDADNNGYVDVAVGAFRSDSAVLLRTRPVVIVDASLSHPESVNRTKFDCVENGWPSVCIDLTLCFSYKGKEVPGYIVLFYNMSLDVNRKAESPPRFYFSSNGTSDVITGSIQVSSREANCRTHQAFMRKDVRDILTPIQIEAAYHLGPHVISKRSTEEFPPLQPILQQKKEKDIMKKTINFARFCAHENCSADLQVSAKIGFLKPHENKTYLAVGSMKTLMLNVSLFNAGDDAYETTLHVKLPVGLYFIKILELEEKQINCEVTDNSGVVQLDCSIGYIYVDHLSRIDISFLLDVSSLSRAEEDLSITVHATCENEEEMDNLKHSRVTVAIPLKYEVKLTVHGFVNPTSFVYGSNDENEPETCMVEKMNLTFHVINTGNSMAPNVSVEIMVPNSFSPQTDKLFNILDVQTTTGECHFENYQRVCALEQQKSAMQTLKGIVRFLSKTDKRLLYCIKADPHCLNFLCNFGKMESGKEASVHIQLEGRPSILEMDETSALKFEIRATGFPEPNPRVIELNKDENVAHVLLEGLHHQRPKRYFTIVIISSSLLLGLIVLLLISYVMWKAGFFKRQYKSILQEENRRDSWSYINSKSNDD
T1 sequence (P05556 21-798): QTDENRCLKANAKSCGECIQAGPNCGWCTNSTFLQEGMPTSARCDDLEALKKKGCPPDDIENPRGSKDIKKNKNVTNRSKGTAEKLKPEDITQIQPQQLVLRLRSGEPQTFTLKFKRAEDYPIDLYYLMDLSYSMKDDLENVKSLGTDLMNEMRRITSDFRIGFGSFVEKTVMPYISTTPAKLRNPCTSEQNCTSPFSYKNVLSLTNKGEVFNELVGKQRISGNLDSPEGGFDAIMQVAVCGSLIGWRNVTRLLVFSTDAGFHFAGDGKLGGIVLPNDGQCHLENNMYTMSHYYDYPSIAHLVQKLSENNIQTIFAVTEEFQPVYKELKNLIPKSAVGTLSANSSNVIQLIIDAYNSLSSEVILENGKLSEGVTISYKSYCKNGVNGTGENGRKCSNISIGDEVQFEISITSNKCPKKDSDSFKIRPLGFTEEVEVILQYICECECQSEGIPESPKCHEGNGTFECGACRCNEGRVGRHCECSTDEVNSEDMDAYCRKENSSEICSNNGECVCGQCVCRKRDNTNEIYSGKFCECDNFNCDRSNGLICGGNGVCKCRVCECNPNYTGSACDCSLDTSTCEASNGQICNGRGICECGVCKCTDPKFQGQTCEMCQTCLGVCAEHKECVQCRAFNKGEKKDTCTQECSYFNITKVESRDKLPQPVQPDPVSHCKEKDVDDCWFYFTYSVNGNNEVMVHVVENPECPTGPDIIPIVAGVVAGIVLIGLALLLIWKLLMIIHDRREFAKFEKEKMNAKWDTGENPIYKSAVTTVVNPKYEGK
Protocol: Ramos (VLA-4)/VCAM-1 Cell-Based Screening Assay Protocol
Soluble recombinant human VCAM-1 (mixture of 5- and 7-Ig domain) was purified from CHO cell culture media by inmmunoaffinity chromatography and maintained in a solution containing 0.1 M Tris-glycine (pH 7.5), 0.1 M NaCl, 5 mM EDTA, 1 mM PMSF, […] NaN3 and 10 μg/mL leupeptin. Calcein-AM was purchased from Molecular Probes Inc.
VLA-4 (α4β1 integrin) antagonist activity, defined as ability to compete with cell-surface VLA-4 for binding to immobilized VCAM-1, was quantitated using a Ramos-VCAM-1 cell adhesion assay. Ramos cells bearing cell-surface VLA-4, were labeled with a fluorescent dye (Calcein-AM) and allowed to bind VCAM-1 in the presence or absence of test compounds. A reduction in fluorescence intensity associated with adherent cells (% inhibition) reflected competitive inhibition of VLA-4 mediated cell adhesion by the test compound.
Initially, this entailed coating 96 well plates (Nunc Maxisorp) with recombinant human VCAM-1 (100 ng in 100 μl PBS), sealing each plate and allowing the plates to stand at 4° C. for ≈18 hr. The VCAM-coated plates were subsequently washed twice with 0.05% Tween-20 in PBS, and then blocked for 1 hr (room temperature) with 200 μl of Blocking Buffer (1% BSA/0.02% thimerosal) to reduce non-specific binding. Following the incubation with Blocking Buffer, plates were inverted, blotted and the remaining buffer aspirated. Each plate was then washed with 300 μl PBS, inverted and the remaining PBS aspirated.
Test compounds were dissolved in 100% DMSO and then diluted 1:25 in VCAM Cell Adhesion Assay Buffer (4 mM CaCl2, 4 mM MgCl2 in 50 mM TRIS-HCl, pH 7.5) (final DMSO=4%). A series of eight 1:4 dilutions were performed for each compound (general concentration range of 1 nM-12,500 nM). 100 μl/well of each dilution was added to the VCAM-coated plates, followed by 100 μl of Ramos cells (200,000 cells/well in 1% BSA/PBS). Plates containing test compounds and Ramos cells were allowed to incubate for 45 min at room temperature, after which 165 μl/well PBS was added. Plates were inverted to remove non-adherent cells, blotted and 300 μl/well PBS added. Plates were again inverted, blotted and the remaining buffer gently aspirated. 100 μl Lysis Buffer (0.1% SDS in 50 mM TRIS-HCl, pH 8.5) was added to each well and agitated for 2 min on a rotary shaking platform. The plates were then read for fluorescence intensity on a Cytofluor 2300 (Millipore) fluorecence measurement system (excitation=485 nm, emission=530 nm). The results are shown in the following Table II, where (A=IC50<100 nM, B=IC50<10000 nM): […]

SMILES	melting point [°C]	pIC50 (VLA-4 (α4β1 integrin))
Cc1cc(C[C@H](NC(=O)c2c(C)cccc2Cl)C(=O)O)ccc1-c1cn(C)c(=O)n(C)c1=O [Example 24, N-[(2-chloro-6-methylphenyl)carbonyl]-4-(1,3-dimethyl-2,4-dioxo-5-pyrimidinyl)-3-methyl-L-phenylalanine]	109 to 111	> 5.00
Cc1cccc(Cl)c1C(=O)N[C@@H](Cc1ccc(-c2c(C)n(C)c(=O)n(C)c2=O)cc1)C(=O)O [Example 9, N-[(2-chloro-6-methylphenyl)carbonyl]-4-(1,3,6-trimethyl-2,4-dioxo-5-pyrimidinyl)-L-phenylalanine]		> 7.00
CCc1cccc(C)c1C(=O)N[C@@H](Cc1ccc(-c2c(C)n(C)c(=O)n(C)c2=O)cc1)C(=O)O [Example 10, N-[(2-ethyl-6-methylphenyl)carbonyl]-4-(1,3,6-trimethyl-2,4-dioxo-5-pyrimidinyl)-L-phenylalanine]	127 to 133	> 7.00
Cc1c(-c2ccc(C[C@H](NC(=O)c3c(F)cccc3F)C(=O)O)cc2)c(=O)n(C)c(=O)n1C [Example 12, N-[(2,6-difluorophenyl)carbonyl]-4-(1,3,6-trimethyl-2,4-dioxo-5-pyrimidinyl)-L-phenylalanine]		> 7.00
Cc1c(-c2ccc(C[C@H](NC(=O)c3c(C(C)C)cccc3C(C)C)C(=O)O)cc2)c(=O)n(C)c(=O)n1C [Example 14, N-[[2,6-di-(2-methylethyl)phenyl]carbonyl]-4-(1,3,6-trimethyl-2,4-dioxo-5-pyrimidinyl)-L-phenylalanine]		> 5.00
Cc1cccc(C(C)C)c1C(=O)N[C@@H](Cc1ccc(-c2c(C)n(C)c(=O)n(C)c2=O)cc1)C(=O)O [Example 11, N-[[2-(2-methylethyl)-6-methylphenyl]carbonyl]-4-(1,3,6-trimethyl-2,4-dioxo-5-pyrimidinyl)-L-phenylalanine]		> 7.00
CCn1c(C)c(-c2ccc(C[C@H](NC(=O)c3c(Cl)cccc3Cl)C(=O)O)cc2)c(=O)n(CC)c1=O [Example 18, N-[(2,6-dichlorophenyl)carbonyl]-4-(1,3-diethyl-6-methyl-2,4-dioxo-5-pyrimidinyl)-L-phenylalanine]		> 7.00
CCn1c(C)c(-c2ccc(C[C@H](NC(=O)C3(CCOC)CCCC3)C(=O)O)cc2)c(=O)n(CC)c1=O [Example 20, 4-(1,3-diethyl-6-methyl-2,4-dioxo-5-pyrimidinyl)-N-[[1-(2-methoxyethyl)cyclopentyl]carbonyl]-L-phenylalanine]		> 7.00
Cn1c(C(F)(F)F)c(-c2ccc(C[C@H](NC(=O)c3c(Cl)cccc3Cl)C(=O)O)cc2)c(=O)n(C)c1=O [Example 21, N-[1-(2,6-dichlorophenyl)carbonyl]-4-(1,3-dimethyl-2,4-dioxo-6-(trifluoromethyl)-5-pyrimidinyl)-L-phenylalanine]	125 to 128	> 7.00
Cc1cc(C[C@H](NC(=O)c2c(Cl)cccc2Cl)C(=O)O)ccc1-c1cn(C)c(=O)n(C)c1=O [Example 25, N-[(2,6-dichlorophenyl)carbonyl]-4-(1,3-dimethyl-2,4-dioxo-5-pyrimidinyl)-3-methyl-L-phenylalanine]		> 7.00
COCCC1(C(=O)N[C@@H](Cc2ccc(-c3c(C)n(C)c(=O)n(C)c3=O)cc2)C(=O)O)CCCC1 [Example 7, N-[[1-(2-methoxyethyl)cyclopentyl]carbonyl]-4-(1,3,6-trimethyl-2,4-dioxo-5-pyrimidinyl)-L-phenylalanine]		> 7.00
Cc1c(-c2ccc(C[C@H](NC(=O)c3c(F)cccc3C(F)(F)F)C(=O)O)cc2)c(=O)n(C)c(=O)n1C [Example 13, N-[(2-fluoro-6-(trifluoromethyl)phenyl)carbonyl]-4-(1,3,6-trimethyl-2,4-dioxo-5-pyrimidinyl)-L-phenylalanine]	218 to 220	> 7.00
Cc1c(-c2ccc(C[C@H](NC(=O)c3c(Cl)cccc3Cl)C(=O)O)cc2)c(=O)n(C)c(=O)n1C [Example 6, N-[(2,6-dichlorophenyl)carbonyl]-4-(1,3,6-trimethyl-2,4-dioxo-5-pyrimidinyl)-L-phenylalanine]		> 7.00
CCc1cccc(Cl)c1C(=O)N[C@@H](Cc1ccc(-c2c(C)n(C)c(=O)n(C)c2=O)cc1)C(=O)O [Example 15, N-[(2-chloro-6-ethylphenyl)carbonyl]-4-(1,3,6-trimethyl-2,4-dioxo-5-pyrimidinyl)-L-phenylalanine]	187 to 190	> 7.00
CCn1c(C)c(-c2ccc(C[C@H](NC(=O)c3c(C)cccc3Cl)C(=O)O)cc2)c(=O)n(CC)c1=O [Example 19, N-[(2-chloro-6-methylphenyl)carbonyl]-4-(1,3-diethyl-6-methyl-2,4-dioxo-5-pyrimidinyl)-L-phenylalanine]		> 7.00
Cc1cccc(Br)c1C(=O)N[C@@H](Cc1ccc(-c2c(C)n(C)c(=O)n(C)c2=O)cc1)C(=O)O [Example 8, N-[(2-bromo-6-methylphenyl)carbonyl]-4-(1,3,6-trimethyl-2,4-dioxo-5-pyrimidinyl)-L-phenylalanine]	240 to 242	> 7.00
CCOC(=O)[C@H](Cc1ccc(-c2c(C)n(C)c(=O)n(C)c2=O)cc1)NC(=O)c1c(Cl)cccc1Cl [Example 27, N-[(2,6-dichlorophenyl)carbonyl]-4-(1,3,6-trimethyl-2,4-dioxo-5-pyrimidinyl)-L-phenylalanine ethyl ester]		> 5.00
Cc1cccc(Cl)c1C(=O)N[C@@H](Cc1ccc(-c2c(C(F)(F)F)n(C)c(=O)n(C)c2=O)cc1)C(=O)O [Example 22, N-[(2-chloro-6-methylphenyl)carbonyl]-4-[1,3-dimethyl-2,4-dioxo-6-(trifluoromethyl)-5-pyrimidinyl]-L-phenylalanine]	243 to 247	> 7.00
Cc1cc(C[C@H](NC(=O)c2c(Cl)cccc2Cl)C(=O)O)ccc1-c1c(C)n(C)c(=O)n(C)c1=O [Example 26, N-[(2,6-dichlorophenyl)carbonyl]-4-(1,3,6-trimethyl-2,4-dioxo-5-pyrimidinyl)-3-methyl-L-phenylalanine]		> 5.00
Cn1c(C(F)(F)F)c(-c2ccc(C[C@H](NC(=O)c3c(F)cccc3C(F)(F)F)C(=O)O)cc2)c(=O)n(C)c1=O [Example 23, N-[[2-fluoro-6-(trifluoromethyl)phenyl]carbonyl]-4-(1,3-dimethyl-2,4-dioxo-6-(trifluoromethyl)-5-pyrimidinyl)-L-phenylalanine]	122 to 125	> 7.00
CCCc1cccc(Cl)c1C(=O)N[C@@H](Cc1ccc(-c2c(C)n(C)c(=O)n(C)c2=O)cc1)C(=O)O [Example 16, N-[(2-chloro-6-propylphenyl)carbonyl]-4-(1,3,6-trimethyl-2,4-dioxo-5-pyrimidinyl)-L-phenylalanine]	225 to 227	> 7.00
